Assay results taken from ChEMBL document CHEMBL1201862, “PubChem BioAssay data set” (2004).
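Assay format: 96-well plates, 48-hour exposure. Abbreviation: GI50, concentration required for 50% inhibition of growth.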 Active and inactive are the calls of the source. Rule as the data show it: active = GI50 up to about 1.1 µM and inactive = higher.

Columns and labels:
Assay in all cases: NCI anticancer screen, dose series, 48 h
CCRF-CEM = tested on: CCRF-CEM
K562 = tested on: K562
MDA-MB-231 = tested on: MDA-MB-231
OVCAR-4 = tested on: OVCAR-4
NCI/ADR-RES = tested on: NCI/ADR-RES
UACC-257 = tested on: UACC-257
M14 = tested on: M14
DU-145 = tested on: DU-145
MDA-MB-435 = tested on: MDA-MB-435
EKVX = tested on: EKVX
IGROV-1 = tested on: IGROV-1
SNB-75 = tested on: SNB-75
SF-268 = tested on: SF-268
Hs-578T = tested on: Hs-578T
OVCAR-5 = tested on: OVCAR-5
A498 = tested on: A498
NCI-H522 = tested on: NCI-H522
NCI-H23 = tested on: NCI-H23
UO-31 = tested on: UO-31
MOLT-4 = tested on: MOLT-4

Measured: GI50

CCCN(C(=O)c1ccccc1)C(C#N)c1ccc(C(C#N)N(CCC)C(=O)c2ccccc2)cc1 (stereo not given)
inactive: CCRF-CEM > 100 µM | K562 > 100 µM | MDA-MB-231 66.1 µM | OVCAR-4 14.5 µM | NCI/ADR-RES 38.5 µM | UACC-257 > 100 µM | M14 > 100 µM | DU-145 77.6 µM | MDA-MB-435 > 100 µM | EKVX 58.3 µM | IGROV-1 32.4 µM | SNB-75 18.4 µM | SF-268 85.9 µM | Hs-578T 24.9 µM | OVCAR-5 93.3 µM | A498 37.1 µM | NCI-H522 > 100 µM | NCI-H23 > 100 µM | UO-31 > 100 µM | MOLT-4 > 100 µM

CC(=O)Nc1cc(C(=O)Nc2cc(C(=O)Nc3cc(C(=O)Nc4cc(C(=O)Nc5cc(C(=O)NCCC(=O)NCCCN(C)C)n(C)c5)n(C)c4)n(C)c3)n(C)c2)n(C)c1
inactive: CCRF-CEM 27.8 µM | K562 58.7 µM | MDA-MB-231 > 100 µM | OVCAR-4 > 100 µM | NCI/ADR-RES > 100 µM | UACC-257 76.2 µM | M14 > 100 µM | DU-145 > 100 µM | MDA-MB-435 36.8 µM | EKVX > 100 µM | IGROV-1 > 100 µM | SNB-75 > 100 µM | SF-268 71.3 µM | Hs-578T 34.2 µM | OVCAR-5 > 100 µM | A498 > 100 µM | NCI-H522 17.9 µM | NCI-H23 > 100 µM | UO-31 > 100 µM | MOLT-4 38.9 µM

COc1ccc(C(SCC(N)C(=O)O)(c2ccc(OC)cc2)c2ccc(OC)cc2)cc1 (stereo not given)
inactive: CCRF-CEM 13.7 µM | K562 10 µM | MDA-MB-231 13.2 µM | OVCAR-4 13.8 µM | NCI/ADR-RES 10.6 µM | UACC-257 11.9 µM | M14 10.2 µM | DU-145 > 10 µM | MDA-MB-435 2.97 µM | EKVX 13.7 µM | IGROV-1 13.3 µM | SNB-75 11.3 µM | SF-268 13.4 µM | Hs-578T 12.2 µM | OVCAR-5 13.9 µM | A498 14.7 µM | NCI-H522 14.1 µM | NCI-H23 12.4 µM | UO-31 11.9 µM | MOLT-4 12.6 µM

CCc1nc2ccc(NCCN(C)C)c3c(=O)c4ccccc4n1c23
inactive: UACC-257 2.48 µM | M14 1.52 µM | EKVX 1.17 µM | SNB-75 3 µM | Hs-578T 1.78 µM | OVCAR-5 1.67 µM | A498 2.54 µM | NCI-H23 1.16 µM | UO-31 1.24 µM
active: CCRF-CEM 0.586 µM | K562 0.468 µM | MDA-MB-231 0.135 µM | OVCAR-4 1.02 µM | NCI/ADR-RES 0.431 µM | DU-145 0.656 µM | MDA-MB-435 1 µM | IGROV-1 0.265 µM | SF-268 0.711 µM | NCI-H522 0.946 µM | MOLT-4 0.175 µM

c1ccc2cc(CNCCCCNCCCNCc3ccc4ccccc4c3)ccc2c1
active: CCRF-CEM 0.351 µM | K562 0.259 µM | IGROV-1 0.585 µM | Hs-578T 0.167 µM | MOLT-4 0.256 µM
inactive: MDA-MB-231 1.82 µM | OVCAR-4 1.6 µM | NCI/ADR-RES 1.68 µM | UACC-257 1.88 µM | M14 1.33 µM | DU-145 1.27 µM | MDA-MB-435 1.45 µM | EKVX 1.57 µM | SNB-75 1.5 µM | SF-268 1.41 µM | OVCAR-5 1.87 µM | A498 1.99 µM | NCI-H522 1.14 µM | NCI-H23 1.8 µM | UO-31 1.42 µM

C[n+]1cccc2ccc3cccnc3c21
inactive: CCRF-CEM > 100 µM | K562 > 100 µM | MDA-MB-231 83.6 µM | OVCAR-4 33.8 µM | NCI/ADR-RES > 100 µM | UACC-257 41.9 µM | M14 44.7 µM | DU-145 49.9 µM | MDA-MB-435 69.2 µM | EKVX 6.84 µM | IGROV-1 76 µM | SNB-75 23.6 µM | SF-268 17.6 µM | Hs-578T 12.7 µM | OVCAR-5 82 µM | A498 32.5 µM | NCI-H522 10 µM | NCI-H23 18.2 µM | UO-31 21.8 µM | MOLT-4 > 100 µM

NC(Cc1ccc(S(=O)(=O)O)cc1)C(=O)NC(CCCCNC(=O)NCCCCC(NC(=O)C(N)Cc1ccc(S(=O)(=O)O)cc1)C(=O)NC(Cc1ccc(S(=O)(=O)O)cc1)C(=O)O)C(=O)NC(Cc1ccc(S(=O)(=O)O)cc1)C(=O)O (stereo not given)
inactive: CCRF-CEM > 100 µM | K562 > 100 µM | MDA-MB-231 > 100 µM | OVCAR-4 > 100 µM | NCI/ADR-RES > 100 µM | UACC-257 > 100 µM | M14 > 100 µM | DU-145 > 100 µM | MDA-MB-435 > 100 µM | EKVX > 100 µM | IGROV-1 > 100 µM | SNB-75 > 100 µM | SF-268 > 100 µM | Hs-578T > 100 µM | OVCAR-5 > 100 µM | A498 > 100 µM | NCI-H522 > 100 µM | NCI-H23 > 100 µM | UO-31 > 100 µM | MOLT-4 > 100 µM
